This is an account of results in ChEMBL document CHEMBL1201862, “PubChem BioAssay data set” (2004).

The source made the active and inactive calls.

Experiment [1] has as its target T1, Replicative DNA helicase DnaB (Mycobacterium tuberculosis, UniProt P9WMR3).
T1 sequence (P9WMR3 whole entry): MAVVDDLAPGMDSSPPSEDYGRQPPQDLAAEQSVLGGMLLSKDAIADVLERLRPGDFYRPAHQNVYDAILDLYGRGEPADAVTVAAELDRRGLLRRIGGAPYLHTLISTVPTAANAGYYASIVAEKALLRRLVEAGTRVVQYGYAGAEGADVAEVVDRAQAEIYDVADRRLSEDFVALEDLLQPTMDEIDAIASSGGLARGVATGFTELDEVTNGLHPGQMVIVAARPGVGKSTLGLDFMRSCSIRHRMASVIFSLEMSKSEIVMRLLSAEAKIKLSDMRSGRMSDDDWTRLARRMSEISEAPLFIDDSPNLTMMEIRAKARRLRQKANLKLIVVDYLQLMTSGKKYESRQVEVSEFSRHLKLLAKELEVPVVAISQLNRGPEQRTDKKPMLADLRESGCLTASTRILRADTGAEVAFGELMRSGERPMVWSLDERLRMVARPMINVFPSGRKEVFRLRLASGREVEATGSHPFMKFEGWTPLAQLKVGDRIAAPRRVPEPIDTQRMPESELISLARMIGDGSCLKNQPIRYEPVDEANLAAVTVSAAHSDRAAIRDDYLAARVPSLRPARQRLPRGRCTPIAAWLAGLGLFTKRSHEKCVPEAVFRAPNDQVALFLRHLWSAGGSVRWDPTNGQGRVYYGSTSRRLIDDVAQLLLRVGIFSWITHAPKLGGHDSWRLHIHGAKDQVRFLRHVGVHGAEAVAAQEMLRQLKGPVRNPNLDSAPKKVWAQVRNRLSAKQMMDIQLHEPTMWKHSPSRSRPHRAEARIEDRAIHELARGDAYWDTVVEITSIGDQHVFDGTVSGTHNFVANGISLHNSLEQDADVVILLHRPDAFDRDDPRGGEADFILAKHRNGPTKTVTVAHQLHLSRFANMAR
Put plainly: DnaB intein splicing inhibitors, dose response, biochemical, cell-free fluorescence (AID 449749). The experiment is classed as functional.

The target of experiment [2] is T2, Protein RecA (Mycobacterium tuberculosis, UniProt P9WHJ3).
T2 sequence (P9WHJ3 whole entry): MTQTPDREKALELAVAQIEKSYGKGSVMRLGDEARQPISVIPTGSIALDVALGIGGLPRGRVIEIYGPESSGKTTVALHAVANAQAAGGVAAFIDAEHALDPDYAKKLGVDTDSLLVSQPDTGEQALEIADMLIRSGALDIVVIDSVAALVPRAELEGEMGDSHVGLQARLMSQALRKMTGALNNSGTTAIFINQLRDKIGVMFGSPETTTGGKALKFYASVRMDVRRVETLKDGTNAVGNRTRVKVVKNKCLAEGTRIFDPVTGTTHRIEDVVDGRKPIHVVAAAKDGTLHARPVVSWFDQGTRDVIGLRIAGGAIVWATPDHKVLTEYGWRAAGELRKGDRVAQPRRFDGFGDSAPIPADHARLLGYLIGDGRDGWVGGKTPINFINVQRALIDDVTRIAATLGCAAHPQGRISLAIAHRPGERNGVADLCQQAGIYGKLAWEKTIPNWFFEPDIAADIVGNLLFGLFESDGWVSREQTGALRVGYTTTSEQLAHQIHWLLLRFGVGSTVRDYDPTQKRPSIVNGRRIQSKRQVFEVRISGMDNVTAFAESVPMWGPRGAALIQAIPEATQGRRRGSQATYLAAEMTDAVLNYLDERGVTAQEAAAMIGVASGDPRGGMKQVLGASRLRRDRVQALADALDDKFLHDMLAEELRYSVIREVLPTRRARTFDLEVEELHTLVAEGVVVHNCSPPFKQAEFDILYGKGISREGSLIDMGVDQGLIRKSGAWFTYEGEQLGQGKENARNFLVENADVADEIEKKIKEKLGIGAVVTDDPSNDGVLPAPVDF
Put plainly: Fluorescence Cell-Free Homogeneous Dose Retest to Identify Inhibitors of RecA-Intein Splicing Activity. [Related pubchem assays (depositor defined):AID2097, AID2223, AID489010, AID492950]. The experiment is classed as functional.

Experiment [3] can be described thus: Counterscreen for AddAB inhibitors: absorbance-based bacterial cell-based high throughput dose response assay for inhibitors of bacterial viability. [Related pubchem assays (depositor defined):AID435030, AID449728, AID449731, AID488942, AID488955, AID488956]. Type of experiment: functional.
Experiment [4] has as its system INS1. Put plainly: INS-1E survival protection against cytokine death – cell-based, luminescence, retest, dose response (AID 449756).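 Note: cell death triggered by IL-1 beta plus TNF-alpha plus IFN-gamma mixture; protective hits raise ATP signal compared with cytokine alone wells.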 The experiment is classed as functional. As to conditions: Rattus norvegicus.
Experiment [5] relates to Streptococcus sp. 'group A'. Put plainly: Streptococcus pyogenes SK(-)GAS viability under kanamycin – luminescence, BacTiterGlo, confirmation, counter-screen for streptokinase expression inhibitor project, dose response (AID 1900). The experiment is classed as functional, organism-based. In general terms: A counterscreen serves to expose hits that act by an unwanted route or on another target.

Experiment [6] deals with T3, Streptokinase A (Streptococcus pyogenes serotype M1, UniProt P10520).
T3 sequence (P10520 whole entry): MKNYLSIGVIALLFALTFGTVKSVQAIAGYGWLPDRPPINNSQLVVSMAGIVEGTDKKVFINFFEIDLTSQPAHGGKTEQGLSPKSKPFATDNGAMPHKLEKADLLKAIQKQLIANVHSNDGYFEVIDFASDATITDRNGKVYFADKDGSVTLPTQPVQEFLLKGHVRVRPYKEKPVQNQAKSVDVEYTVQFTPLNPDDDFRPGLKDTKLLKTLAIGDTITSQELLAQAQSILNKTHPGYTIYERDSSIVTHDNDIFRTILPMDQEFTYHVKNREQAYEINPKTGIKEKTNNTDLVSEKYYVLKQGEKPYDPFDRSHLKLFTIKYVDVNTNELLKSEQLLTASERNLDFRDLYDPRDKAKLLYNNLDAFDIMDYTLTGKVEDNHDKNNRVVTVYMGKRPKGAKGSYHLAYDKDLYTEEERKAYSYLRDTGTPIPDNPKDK
Put plainly: viability-normalized secreted streptokinase activity reduction – plasminogen activation absorbance, OD405, dose response (AID 1914).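 Note: secreted streptokinase activity via plasminogen activation per viability signal from cell pellet.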 The experiment is classed as functional, Streptococcus pyogenes M1 GAS.

For experiment [7], the system named is Streptococcus. Put plainly: GAS UMAA2166 growth inhibition – luminescence, BacTiterGlo, counter-screen for streptokinase expression inhibitor project, dose response (AID 1915).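 Note: potency for reduction of bacterial viability or growth.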 The experiment is classed as functional, organism-based.
Experiment [8] has as its target NACHT, LRR and PYD domains-containing protein 3 (Homo sapiens, UniProt Q96P20). Put plainly: NALP3 inhibitors in yeast, dose response, luminescent (AID 488799). The experiment is classed as functional.

Chain of NACHT, LRR and PYD domains-containing protein 3 (Q96P20 whole entry, the tested form may be a part): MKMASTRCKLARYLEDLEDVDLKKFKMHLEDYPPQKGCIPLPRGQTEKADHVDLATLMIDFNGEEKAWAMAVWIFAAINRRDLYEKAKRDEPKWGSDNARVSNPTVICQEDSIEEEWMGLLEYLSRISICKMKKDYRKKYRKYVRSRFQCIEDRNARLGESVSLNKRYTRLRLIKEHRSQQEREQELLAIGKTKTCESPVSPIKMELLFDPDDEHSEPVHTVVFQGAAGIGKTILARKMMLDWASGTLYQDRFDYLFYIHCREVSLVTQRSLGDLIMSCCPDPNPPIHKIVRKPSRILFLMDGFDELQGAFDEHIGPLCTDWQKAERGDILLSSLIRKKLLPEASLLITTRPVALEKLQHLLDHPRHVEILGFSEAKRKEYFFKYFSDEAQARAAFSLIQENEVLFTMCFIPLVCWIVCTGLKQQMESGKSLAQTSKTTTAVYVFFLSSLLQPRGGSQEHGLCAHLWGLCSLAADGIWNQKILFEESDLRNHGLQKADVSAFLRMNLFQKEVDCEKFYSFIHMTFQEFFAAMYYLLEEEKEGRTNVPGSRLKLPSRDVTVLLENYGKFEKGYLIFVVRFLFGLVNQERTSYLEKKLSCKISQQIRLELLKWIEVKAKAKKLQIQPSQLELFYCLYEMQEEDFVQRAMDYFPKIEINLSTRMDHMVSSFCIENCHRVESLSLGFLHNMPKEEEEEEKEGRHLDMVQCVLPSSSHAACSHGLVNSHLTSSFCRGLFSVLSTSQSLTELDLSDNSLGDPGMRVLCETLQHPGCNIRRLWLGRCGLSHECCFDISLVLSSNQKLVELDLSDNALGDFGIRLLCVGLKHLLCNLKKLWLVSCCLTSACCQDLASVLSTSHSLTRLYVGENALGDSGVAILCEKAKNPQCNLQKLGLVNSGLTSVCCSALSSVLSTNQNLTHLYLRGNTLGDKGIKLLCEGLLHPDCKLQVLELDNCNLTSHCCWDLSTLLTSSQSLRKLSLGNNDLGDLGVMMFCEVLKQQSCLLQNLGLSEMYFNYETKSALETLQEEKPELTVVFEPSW

One may read the AC50 as the concentration at which the activity in the assay is half-maximal. For orientation: EC50 means the concentration giving half of the maximal effect. `CC(C)c1ccc(S(=O)(=O)/N=C2\C=C(NS(=O)(=O)c3ccccc3)C(=O)c3ccccc32)cc1`: in experiment [1], the AC50 was 3.92 µM (active). Further, the EC50 in experiment [2] was 3.69 µM (active).
Usually IC50 stands for the midpoint of a concentration-inhibition curve. For the molecule `O=[N+]([O-])c1ccc(/C=N/n2cnc3ccccc32)s1`, the IC50 in experiment [3] was 91.4 µM (inactive). In addition, the AC50 in experiment [4] was 2.6 µM (active).
In the case of `CCSc1nsc(NC(=O)Nc2cccc(F)c2)n1`, the EC50 in experiment [5] was 9.91 µM (active); in experiment [6] it was 40.5 µM (active); in experiment [7], 20.7 µM (active). For the same molecule, the IC50 is 1.97 µM (active) in experiment [8] and > 119 µM (inactive) in experiment [3].
Consider `COc1ccc(CNC(=O)c2c(C)oc3c2C(=O)c2ccccc2C3=O)cc1`, for which the EC50 in experiment [5] is 0.737 µM (active); in experiment [6], > 150 µM (not active); in experiment [7] it was 6.35 µM (active); in experiment [2], 5.29 µM (active). For the same molecule, the IC50 in experiment [8] was 9.7 µM (active). Further, the AC50 in experiment [1] is 13.3 µM (active); in experiment [4] it was 2.8 µM (active).
